Drawing on BindingDB's records for doi:10.1021/jm020230j (Sunesis Pharmaceuticals, 2002), this text covers Ki for one compound.

What all share (test): Fluorometric Assay
Holding throughout (settings): pH 7.4; 25 °C

One test deals with T1, Caspase-1 (Homo sapiens, UniProt P29466).
T1 sequence (P29466 whole entry): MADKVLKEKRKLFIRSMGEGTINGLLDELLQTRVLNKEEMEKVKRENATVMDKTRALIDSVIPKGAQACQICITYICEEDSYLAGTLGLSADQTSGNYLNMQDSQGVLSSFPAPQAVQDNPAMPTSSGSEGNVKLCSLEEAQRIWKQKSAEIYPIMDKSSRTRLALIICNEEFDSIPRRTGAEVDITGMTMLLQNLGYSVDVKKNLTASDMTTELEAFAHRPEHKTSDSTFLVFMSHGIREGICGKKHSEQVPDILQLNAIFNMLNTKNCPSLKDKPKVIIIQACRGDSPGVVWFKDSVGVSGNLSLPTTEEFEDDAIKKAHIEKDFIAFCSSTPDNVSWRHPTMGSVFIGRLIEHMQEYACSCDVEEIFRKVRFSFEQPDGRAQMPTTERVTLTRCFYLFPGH
As for the experimental part: (§1) The effectiveness of compounds against the activity of human recombinant caspase-1-8 was measured using fluorometric assays. Assays were carried out in a 96-well flat bottom, polystyrene plates. […] Kinetic data were collected over a 15 min assay run at room temperature. IC50 values were calculated through a four parameter fit curve using the computer application SOFTmax PRO. Ki(apparent) values were calculated using the following equation: Ki(app) = IC50/(1 + [substrate]/Km).

In another test the target is T2, Caspase-2 (Homo sapiens, UniProt P42575).
T2 sequence (P42575 whole entry): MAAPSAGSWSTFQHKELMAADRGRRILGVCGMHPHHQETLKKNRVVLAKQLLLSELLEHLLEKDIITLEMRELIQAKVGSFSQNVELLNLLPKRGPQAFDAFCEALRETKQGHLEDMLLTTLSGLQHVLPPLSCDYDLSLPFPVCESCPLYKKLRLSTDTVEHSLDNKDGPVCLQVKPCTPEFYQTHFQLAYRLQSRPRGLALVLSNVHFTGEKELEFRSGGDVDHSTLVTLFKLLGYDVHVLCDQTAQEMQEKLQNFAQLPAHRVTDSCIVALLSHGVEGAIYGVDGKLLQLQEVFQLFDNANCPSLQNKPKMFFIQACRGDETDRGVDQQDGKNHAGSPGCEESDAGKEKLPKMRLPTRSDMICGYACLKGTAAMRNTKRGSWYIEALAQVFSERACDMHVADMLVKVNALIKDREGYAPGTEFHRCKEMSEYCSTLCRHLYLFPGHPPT
The protocol:
as §1

The next test concerns the target T3, Caspase-3 (Homo sapiens, UniProt P42574).
T3 sequence (P42574 whole entry): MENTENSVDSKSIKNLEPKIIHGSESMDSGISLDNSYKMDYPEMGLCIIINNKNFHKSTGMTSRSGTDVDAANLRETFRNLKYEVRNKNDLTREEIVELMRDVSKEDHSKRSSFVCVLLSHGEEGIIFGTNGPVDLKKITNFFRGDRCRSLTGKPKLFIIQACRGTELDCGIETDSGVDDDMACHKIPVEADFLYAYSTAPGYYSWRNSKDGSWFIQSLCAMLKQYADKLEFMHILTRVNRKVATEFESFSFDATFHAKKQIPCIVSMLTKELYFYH
As for the experimental part:
as §1

The target of another test is T4, Caspase-4 (Homo sapiens, UniProt P49662).
T4 sequence (P49662 whole entry): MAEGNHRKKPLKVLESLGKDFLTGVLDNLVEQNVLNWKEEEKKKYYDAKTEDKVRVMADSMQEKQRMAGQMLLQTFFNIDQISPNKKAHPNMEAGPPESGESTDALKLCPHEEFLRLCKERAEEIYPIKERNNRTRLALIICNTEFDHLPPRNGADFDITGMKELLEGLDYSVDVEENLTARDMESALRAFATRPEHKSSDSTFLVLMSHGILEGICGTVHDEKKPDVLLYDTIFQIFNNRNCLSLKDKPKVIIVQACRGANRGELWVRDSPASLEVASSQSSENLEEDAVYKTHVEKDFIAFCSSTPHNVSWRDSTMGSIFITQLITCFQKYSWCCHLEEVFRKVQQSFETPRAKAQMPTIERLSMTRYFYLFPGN
As for the experimental part:
as §1

The target in another test is T5, Caspase-6 (Homo sapiens, UniProt P55212).
T5 sequence (P55212 whole entry): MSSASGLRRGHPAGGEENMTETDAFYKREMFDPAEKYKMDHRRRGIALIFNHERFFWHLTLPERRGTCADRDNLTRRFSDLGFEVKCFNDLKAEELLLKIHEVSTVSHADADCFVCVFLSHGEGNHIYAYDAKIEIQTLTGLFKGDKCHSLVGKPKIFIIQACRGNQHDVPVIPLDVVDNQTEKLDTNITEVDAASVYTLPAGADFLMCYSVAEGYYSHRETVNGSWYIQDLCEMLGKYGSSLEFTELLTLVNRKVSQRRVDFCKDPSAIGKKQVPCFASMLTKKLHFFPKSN
The protocol:
as §1

The next test concerns the target T6, Caspase-7 (Homo sapiens, UniProt P55210).
T6 sequence (P55210 whole entry): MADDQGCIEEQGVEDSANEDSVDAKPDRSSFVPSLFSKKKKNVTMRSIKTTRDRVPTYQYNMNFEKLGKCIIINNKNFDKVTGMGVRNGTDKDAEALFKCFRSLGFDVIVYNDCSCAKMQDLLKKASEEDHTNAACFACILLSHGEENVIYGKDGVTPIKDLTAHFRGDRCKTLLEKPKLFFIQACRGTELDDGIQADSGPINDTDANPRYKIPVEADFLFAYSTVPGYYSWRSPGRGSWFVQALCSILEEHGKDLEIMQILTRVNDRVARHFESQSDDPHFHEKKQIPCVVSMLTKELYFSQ
As for the experimental part:
as §1

Another test deals with Caspase-8 (Homo sapiens, UniProt Q14790). The protocol:
as §1

Caspase-8, sequence (Q14790 217-374 limits assumed): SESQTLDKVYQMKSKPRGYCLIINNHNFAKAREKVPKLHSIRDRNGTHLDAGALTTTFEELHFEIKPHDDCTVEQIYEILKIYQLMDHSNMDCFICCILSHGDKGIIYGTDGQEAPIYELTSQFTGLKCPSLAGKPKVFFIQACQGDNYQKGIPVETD
Caspase-8, sequence (Q14790 385-479 limits assumed): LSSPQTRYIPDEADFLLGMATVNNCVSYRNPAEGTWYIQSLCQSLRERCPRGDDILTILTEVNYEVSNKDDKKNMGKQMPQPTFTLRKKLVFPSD

One may read the Ki as the equilibrium dissociation constant of an inhibitor or competing ligand from its target. Consider `O=C(O)C[C@H](NC(=O)c1ccc(CNS(=O)(=O)c2ccc(O)c(C(=O)O)c2)nc1)C(=O)CSCc1ccccc1Cl` [(S)-5-({5-[1-Carboxymethyl-3-(2-chloro-benzylsulfanyl)-2-oxo-propylcarbamoyl]pyridin-2-ylmethyl}sulfamoyl)-2-hydroxy-benzoic Acid], for which the inhibition constant (Ki) on Caspase-1 was determined as 1500 nM; at Caspase-2 it was 11000 nM; on Caspase-3 it was 30 nM; at Caspase-4, 38000 nM; on Caspase-6, 120 nM; at Caspase-7 it was 90 nM. On Caspase-8, this compound returned an inhibition constant (Ki) of 810 nM.
